Type in all cases: biochemical
The target in one assay is T1, papain (Carica papaya, UniProt P00784).
T1 sequence (P00784 134-345): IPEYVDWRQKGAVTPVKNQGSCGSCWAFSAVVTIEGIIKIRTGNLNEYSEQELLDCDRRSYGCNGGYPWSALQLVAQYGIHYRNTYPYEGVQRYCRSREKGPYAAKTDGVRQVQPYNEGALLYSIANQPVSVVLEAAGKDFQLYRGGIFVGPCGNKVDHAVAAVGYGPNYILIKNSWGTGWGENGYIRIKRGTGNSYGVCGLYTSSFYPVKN
The experiment in a line: Assay of inhibition of papain (N-CBZ-Pro-Phe-Arg-pNA substrate). As for the experimental part: To a 170 μl of enzyme-buffer mixture (enzyme:papain, diluted to give 30 mOD/min, buffer: 0.2M potassium phosphate, 1.0 mM EDTA, 5 mML Cysteine, pH6.5) a 10 μl of inhibitor (dissolved in DMSO) was added. After 10 min of incubation at room temperature, 20 μl of 10 mM substrate (N-CBZ-Pro-Phe-Arg-pNA, dissolved in DMSO) was added to initiate reaction. Reading is followed up for 3 min at the Thermomax plate reader(absorbance at 405 nm).
A plot of percentage of inhibition vs inhibitor concentration is obtained, and IC50 is determined using a linear regression calculations (concentration of inhibitor which will give 50% inhibition).

Another assay concerns the target Cathepsin B (Rattus norvegicus, UniProt P00787). The assay can be described thus: In vitro assay of inhibition of Cathepsin B (N-CBZ-Phe-Arg-AMC substrate). As for the experimental part:
After 10 min of incubation at room temperature a 20 μl of 5 mM substrate (N-CBZ-Phe-Arg-AMC, dissolved in DMSO) was added to initiate reaction. Reading is followed up for 10 min at the Fluoroscan reader (excitation at 380 nm, emission at 460 nm).

For the next assay, the target named is Cathepsin L (Rattus norvegicus, UniProt P07154). The experiment in a line: Assay of inhibition of Cathepsin L (N-CBZ-Phe-Arg-AMC substrate). As for the experimental part: After 10 min of incubation at room temperature a 20 μl of 1 mM substrate (N-CBZ-Phe-Arg-AMC, dissolved in DMSO) was added to initiate reaction. Reading is followed up for 10 min at the Fluoroscan reader (excitation at 380 nm, emission at 460 nm).

The mark [1] stands for this setting: r rat CathB, pH5.1, 10 min preincubation at room temperature, read-out: IC50, Cathepsin B.
[2] abbreviates: r rat CathL, pH5.0, 10 min preincubation at room temperature, read-out: IC50, Cathepsin L.
The mark [3] stands for this setting: pH6.5, 10 min preincubation at room temperature, read-out: IC50, Papain.

Read-outs that look alike come from different tables or passages of the source.

Sequence of Cathepsin B (P00787 80-339): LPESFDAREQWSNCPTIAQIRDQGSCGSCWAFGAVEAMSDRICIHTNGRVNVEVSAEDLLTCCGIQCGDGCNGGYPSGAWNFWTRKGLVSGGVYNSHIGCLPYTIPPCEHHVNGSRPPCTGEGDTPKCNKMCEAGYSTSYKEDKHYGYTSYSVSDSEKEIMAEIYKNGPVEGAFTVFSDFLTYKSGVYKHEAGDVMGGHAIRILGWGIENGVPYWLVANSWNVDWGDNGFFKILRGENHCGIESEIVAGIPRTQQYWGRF
Sequence of Cathepsin L (P07154 114-334): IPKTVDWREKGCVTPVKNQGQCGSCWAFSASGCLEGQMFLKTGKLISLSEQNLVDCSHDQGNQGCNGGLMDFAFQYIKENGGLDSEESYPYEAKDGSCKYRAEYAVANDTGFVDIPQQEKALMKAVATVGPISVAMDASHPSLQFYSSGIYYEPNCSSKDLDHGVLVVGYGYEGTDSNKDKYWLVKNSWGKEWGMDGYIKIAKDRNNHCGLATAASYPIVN

As for `C[C@H]1[C@H](NC(=O)[C@H](Cc2ccccc2)NC(=O)OCc2ccccc2)C(=O)N1S(=O)(=O)O` [Example 5, Potassium (3S,4S)-3-(N-benzyloxycarbonyl-L-phenylalanyl)-amino-4-methyl-azetidin-2-one-1-sulfonate], the IC50 on papain and on Cathepsin B (setting [1]) was above 25000 nM throughout.

Consider `C[C@H]1[C@H](NC(=O)CNC(=O)[C@H](Cc2ccccc2)NC(=O)OCc2ccccc2)C(=O)N1S(=O)(=O)O` [Example 6, Potassium (3S,4S)-3-(N-benzyloxycarbonyl-L-phenylalanyl-glycinyl)-amino-4-methyl-azetidin-2-one-1-sulfonate], for which the IC50 against papain and at Cathepsin B (setting [1]) was above 25000 nM in each case.

Turning to `CC(=O)O[C@@H]1NC(=O)[C@H]1NC(=O)[C@H](CC(C)C)NC(=O)OCc1ccccc1` [Example 8, (3S,4S)-3-(N-benzyloxycarbonyl-L-leucyl)-amino-4-acetoxy-azetidin-2-one], the IC50 stood at 30 nM against Cathepsin L and 731 nM against papain.

Regarding `CC(=O)N[C@@H](Cc1ccccc1)C(=O)N[C@@H]1C(=O)N[C@H]1OC(C)=O` [Example 9], the IC50 at Cathepsin L (setting [2]) was determined as 2700 nM; on papain (setting [3]), 228 nM; at Cathepsin B (setting [1]), 42300 nM.

Consider `N[C@@H](Cc1ccc(O[C@@H]2NC(=O)[C@H]2NC(=O)[C@H](Cc2ccccc2)NC(=O)CCc2ccccc2)cc1)C(=O)O` [Example 29B, (3S,4S)-3-{N-(3-phenylpropionoyl)-L-phenylalanyl}-amino-4-{4-(L-2-amino-2-carboxy-ethyl)-phenoxy}-azetidin-2-one], for which the values for the IC50 on Cathepsin L (setting [2]), against papain and on Cathepsin B (setting [1]) were 292 nM, 368 nM and above 46000 nM, respectively.

Consider `CC(=O)O[C@@H]1NC(=O)[C@H]1NC(=O)[C@H](C)NC(=O)OCc1ccccc1` [Example 33, (3S,4S)-3-(N-benzyloxycarbonyl-L-alanyl)-amino-4-acetoxy-azetidin-2-one], for which the IC50 on Cathepsin L (setting [2]) stood at 35900 nM; against papain, 7030 nM; on Cathepsin B (setting [1]) it was 14300 nM.

With `CC(C)C[C@H](NC(=O)[C@H]1O[C@@H]1C(=O)O)C(=O)NCCCCN=C(N)N` [Example E-64, reference compound], the IC50 on Cathepsin L (setting [2]) amounted to 15 nM; on papain (setting [3]), 2.5 nM; on Cathepsin B (setting [1]), 5 nM.

As for `CC(=O)N[C@@H](CC(C)C)C(=O)N[C@@H](CC(C)C)C(=O)N[C@H](C=O)CCCNC(=N)N` [Leupeptin, reference compound], the IC50 stood at 8 nM at Cathepsin L (setting [2]), 12 nM at papain (setting [3]) and 13 nM at Cathepsin B.

The values are drawn from patent US5986108A, “4-substitued-3-[1 or 2 amino acid residue]-azetidin-2-one derivatives useful as cysteine proteinase inhibitor” (Synphar Laboratories, Inc., priority 1997, dated 1999).
